pIC50: −log10 of the molar value.
Tests used:
[1] = test system: choline acetyltransferase (ChAT) activity in dissociated rat embryonic spinal cord culture; assay: Spinal Cord ChAT Activity Assay; type: cell-based; conditions: ChAT measured after 48 hours
protein kinase C = assay: PKC Activity Inhibition Assay; type: biochemical
Experimental: Fused pyrrolocarbazoles inhibited the activity of protein kinase C (Table VI). The protein kinase C assay has been disclosed (Murakata et al., U.S. Pat. No. 4,923,986; Kikkawa et al., J. Biol. Chem. 257:13341-13348 (1982)). The assay was performed with several concentrations of fused pyrrolocarbazoles. The concentration at which protein kinase C was 50% inhibited (IC50) was determined.

AT-2 cells = assay: Inhibition of Growth of Prostate Cancer Cell Line (MTS assay); type: cell-based; conditions: 72 h; 3 days, MTS; read-out: AT-2 cell growth IC50
In short: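 AT-2 rat Dunning prostate cancer cells were plated in RPMI-1640 with 10% FCS and 250 nM dexamethasone; compounds added next day, initially at 10–0.01 μM, then at 3 or more concentrations near the IC50. Cell number was measured 3 days later by MTS/PMS reduction (A490).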

[2] = test system: chick dorsal root ganglion neurons; assay: DRG Neurite Outgrowth Assay; type: cell-based; conditions: compound concentration 200 nM; 48 hours
Experimental: Fused pyrrolocarbazoles promoted nerve fiber (i.e., neurite) outgrowth in explant (i.e., primary) cultures of chick dorsal root ganglion neurons. Dorsal root ganglion (i.e., DRG) nerve fiber outgrowth was increased when a fused pyrrolocarbazole was added to cultures at a concentration of 200 nM (Table IV). Control cultures consisted of: 1) no added NGF or fused pyrrolocarbazole ("Control"), or 2) 50 ng/ml NGF, a neurotrophin known to promote neurite extension in DRG cultures ("NGF").
Methods: Dorsal root ganglia were dissected from chick embryos (embryonic day 9) and individual ganglia were plated on poly-1-ornithine and laminin coated plates. A fused pyrrolocarbazole or 50ng/ml NGF was each added to independent cultures after allowing a 1-2 hour cell attachment period. Explants were cultured for 48 hours in serum-free N2 medium supplemented with 0.05% BSA (Bottenstein et al., PNAS USA 76:514-517 (1979)). Cultures were maintained at 37° C. in a humidified atmosphere, 5% CO2 /95% air. Nerve fiber outgrowth was assessed by the density and length of neurites. It should be apparent to those skilled in the art that neurite extension assays are semi-quantitative and involve a visual comparison between control and experimental neuronal cell cultures (Alberts et al., Molecular Biology of the Cell, 2ed. Garland Publishing, Inc., New York (1989).

[3] = test system: ChAT activity of basal forebrain cultures; assay: Basal Forebrain ChAT Activity Assay; type: cell-based, rat
In short: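 Basal forebrain neurons from E17–18 rat embryos were Dispase-dissociated and plated at 5×10^4 cells/well on poly-ornithine/laminin. Cultures were kept in serum-free N2 medium with 0.05% BSA at 37° C. ChAT activity was measured 5 days after plating as the read-out for compound-induced increase.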

pIC50 (protein kinase C): 6.96
pIC50 (AT-2 cells): 5.34
SMILES: O=C1NCc2c1c1c(c3[nH]c4ccccc4c23)Cc2ccccc2-1 [Compound I-2]
Spinal Cord ChAT Activity, % of Control, untreated cultures [1]: 160 % of Control
DRG Neurite Outgrowth [2]: modest to dense outgrowth of neurites
ChAT Activity (% of Control) ([3]; 100 nM): inactive
ChAT Activity (% of Control) ([3]; 1000 nM): inactive
activity at 0.25 µM ([3]; Rattus norvegicus, 120 h, 250 nM, read-out: ChAT Activity (% of Control)): 137%
activity at 0.5 µM ([3]; Rattus norvegicus, 120 h, 500 nM, read-out: ChAT Activity (% of Control)): 137%

From patent US5594009A, “Fused pyrrolocarbazoles” (priority 1995, dated 1997)
